Article PMC7385619, “A triple action CDK4/6-PI3K-BET inhibitor with augmented cancer cell cytotoxicity” (Cell Discovery, 2020)

Tests used:
Test in all cases: KINOMEscan assay (Eurofins DiscoverX)
Assay type in all cases: binding
kinome (kinase panel) [1] = target: T1, kinome (kinase panel) (Homo sapiens, UniProt O94921); settings: PFTK1 (Entrez CDK14); 1000 nM; read-out: Percent Control
T1 construct: purchased Eurofins DiscoverX

kinome (kinase panel) [2] = target: T2, kinome (kinase panel) (Homo sapiens, UniProt O96013); settings: PAK4; 1000 nM; read-out: Percent Control
T2 construct: purchased Eurofins DiscoverX

kinome (kinase panel) [3] = target: T3, kinome (kinase panel) (Homo sapiens, UniProt P00519, F317I)
T3 construct: purchased Eurofins DiscoverX
T3 sequence (P00519 whole entry F317I): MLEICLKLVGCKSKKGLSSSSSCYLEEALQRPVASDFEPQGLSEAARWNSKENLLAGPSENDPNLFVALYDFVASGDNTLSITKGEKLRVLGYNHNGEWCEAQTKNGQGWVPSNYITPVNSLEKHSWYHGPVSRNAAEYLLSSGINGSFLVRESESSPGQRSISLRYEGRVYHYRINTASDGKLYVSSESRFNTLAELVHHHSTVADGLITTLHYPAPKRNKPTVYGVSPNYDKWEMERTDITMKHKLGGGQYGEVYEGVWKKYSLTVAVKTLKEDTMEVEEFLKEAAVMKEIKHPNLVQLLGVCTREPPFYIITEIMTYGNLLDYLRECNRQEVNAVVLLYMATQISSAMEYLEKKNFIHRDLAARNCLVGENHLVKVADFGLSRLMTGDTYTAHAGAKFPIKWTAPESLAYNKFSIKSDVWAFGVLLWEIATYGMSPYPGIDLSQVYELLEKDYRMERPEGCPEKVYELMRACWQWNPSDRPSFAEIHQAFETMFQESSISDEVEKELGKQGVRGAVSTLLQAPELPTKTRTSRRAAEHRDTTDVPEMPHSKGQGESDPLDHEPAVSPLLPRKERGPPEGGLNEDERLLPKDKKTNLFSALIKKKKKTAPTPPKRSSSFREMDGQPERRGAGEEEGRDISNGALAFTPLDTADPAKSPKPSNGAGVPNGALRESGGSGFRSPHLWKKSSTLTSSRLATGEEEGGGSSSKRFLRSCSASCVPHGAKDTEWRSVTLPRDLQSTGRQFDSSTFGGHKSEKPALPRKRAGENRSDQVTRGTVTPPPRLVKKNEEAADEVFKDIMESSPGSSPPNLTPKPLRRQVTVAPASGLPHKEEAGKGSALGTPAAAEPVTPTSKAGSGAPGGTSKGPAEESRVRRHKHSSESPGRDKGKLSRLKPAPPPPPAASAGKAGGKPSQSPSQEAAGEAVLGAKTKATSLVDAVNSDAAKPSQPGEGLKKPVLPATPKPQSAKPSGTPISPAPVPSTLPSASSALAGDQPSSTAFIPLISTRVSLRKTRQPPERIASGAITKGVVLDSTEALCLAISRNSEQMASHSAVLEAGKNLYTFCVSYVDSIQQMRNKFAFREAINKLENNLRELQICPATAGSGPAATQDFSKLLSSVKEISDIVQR

kinome (kinase panel) [4] = target: T4, kinome (kinase panel) (Homo sapiens, UniProt P00533, L858R/T790M); settings: read-out: Percent Control
T4 construct: purchased Eurofins DiscoverX

kinome (kinase panel) [5] = target: T5, kinome (kinase panel) (Homo sapiens, UniProt P06213); settings: INSR; 1000 nM; read-out: Percent Control
T5 construct: purchased Eurofins DiscoverX

kinome (kinase panel) [6] = target: T6, kinome (kinase panel) (Homo sapiens, UniProt P07332); settings: FES; 1000 nM; read-out: Percent Control
T6 construct: purchased Eurofins DiscoverX

kinome (kinase panel) [7] = target: T7, kinome (kinase panel) (Homo sapiens, UniProt P07947); settings: YES (YES1); 1000 nM; read-out: Percent Control
T7 construct: purchased Eurofins DiscoverX

kinome (kinase panel) [8] = target: T8, kinome (kinase panel) (Homo sapiens, UniProt P09769); settings: FGR; 1000 nM; read-out: Percent Control
T8 construct: purchased Eurofins DiscoverX

kinome (kinase panel) [9] = target: T9, kinome (kinase panel) (Homo sapiens, UniProt P11362); settings: FGFR1; 1000 nM; read-out: Percent Control
T9 construct: purchased Eurofins DiscoverX

kinome (kinase panel) [10] = target: T10, kinome (kinase panel) (Homo sapiens, UniProt P23443); settings: S6K1 (RPS6KB1); 1000 nM; read-out: Percent Control
T10 construct: purchased Eurofins DiscoverX
T10 sequence (P23443 whole entry): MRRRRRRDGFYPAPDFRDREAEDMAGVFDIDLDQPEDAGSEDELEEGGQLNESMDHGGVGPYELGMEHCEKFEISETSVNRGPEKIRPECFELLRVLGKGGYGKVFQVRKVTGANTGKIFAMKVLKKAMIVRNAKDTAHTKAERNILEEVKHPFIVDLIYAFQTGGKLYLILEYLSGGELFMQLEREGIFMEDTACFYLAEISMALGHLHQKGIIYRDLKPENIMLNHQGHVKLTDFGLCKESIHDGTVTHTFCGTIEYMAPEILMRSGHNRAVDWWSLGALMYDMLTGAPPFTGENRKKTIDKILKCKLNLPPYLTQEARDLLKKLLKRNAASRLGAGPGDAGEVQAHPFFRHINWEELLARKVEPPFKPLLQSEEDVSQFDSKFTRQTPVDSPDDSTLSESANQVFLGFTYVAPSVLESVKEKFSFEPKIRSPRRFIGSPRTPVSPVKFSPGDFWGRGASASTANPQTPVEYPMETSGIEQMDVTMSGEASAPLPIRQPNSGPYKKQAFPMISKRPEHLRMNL

kinome (kinase panel) [11] = target: T11, kinome (kinase panel) (Homo sapiens, UniProt P42681); settings: TXK; 1000 nM; read-out: Percent Control
T11 construct: purchased Eurofins DiscoverX
T11 sequence (P42681 whole entry): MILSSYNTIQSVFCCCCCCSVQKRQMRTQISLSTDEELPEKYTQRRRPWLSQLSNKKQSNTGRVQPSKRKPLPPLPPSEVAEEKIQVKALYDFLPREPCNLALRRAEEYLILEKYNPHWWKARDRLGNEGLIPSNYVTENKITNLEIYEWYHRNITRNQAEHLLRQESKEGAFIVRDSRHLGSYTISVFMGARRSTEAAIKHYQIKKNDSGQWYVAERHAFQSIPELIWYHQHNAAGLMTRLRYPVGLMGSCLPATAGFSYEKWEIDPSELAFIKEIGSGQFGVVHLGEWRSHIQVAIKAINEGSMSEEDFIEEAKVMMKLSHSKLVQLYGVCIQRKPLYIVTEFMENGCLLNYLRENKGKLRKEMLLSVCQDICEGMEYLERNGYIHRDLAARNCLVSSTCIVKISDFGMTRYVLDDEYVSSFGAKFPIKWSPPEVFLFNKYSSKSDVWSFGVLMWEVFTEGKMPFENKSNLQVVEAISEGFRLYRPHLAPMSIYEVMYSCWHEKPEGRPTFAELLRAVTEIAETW

kinome (kinase panel) [12] = target: T12, kinome (kinase panel) (Homo sapiens, UniProt P43403); settings: ZAP70; 1000 nM; read-out: Percent Control
T12 construct: purchased Eurofins DiscoverX
T12 sequence (P43403 whole entry): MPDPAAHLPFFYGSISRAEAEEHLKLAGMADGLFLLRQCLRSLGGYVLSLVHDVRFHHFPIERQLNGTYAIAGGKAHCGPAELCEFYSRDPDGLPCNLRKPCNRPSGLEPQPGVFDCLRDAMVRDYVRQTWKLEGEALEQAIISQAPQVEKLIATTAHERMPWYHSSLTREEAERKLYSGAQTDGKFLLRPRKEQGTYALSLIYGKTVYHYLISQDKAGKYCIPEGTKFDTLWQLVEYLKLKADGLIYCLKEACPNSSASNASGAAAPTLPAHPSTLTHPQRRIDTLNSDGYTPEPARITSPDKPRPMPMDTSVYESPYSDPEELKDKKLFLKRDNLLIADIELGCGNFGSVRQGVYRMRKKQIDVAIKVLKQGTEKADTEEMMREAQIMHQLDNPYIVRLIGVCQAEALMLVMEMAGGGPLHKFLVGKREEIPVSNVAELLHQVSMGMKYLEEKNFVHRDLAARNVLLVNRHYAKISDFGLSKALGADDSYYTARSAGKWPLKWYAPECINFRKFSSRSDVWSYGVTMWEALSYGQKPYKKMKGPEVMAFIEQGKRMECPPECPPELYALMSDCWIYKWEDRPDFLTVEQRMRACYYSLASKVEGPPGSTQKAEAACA

kinome (kinase panel) [13] = target: T13, kinome (kinase panel) (Homo sapiens, UniProt P49841); settings: GSK3B; 1000 nM; read-out: Percent Control
T13 construct: purchased Eurofins DiscoverX

kinome (kinase panel) [14] = target: T14, kinome (kinase panel) (Homo sapiens, UniProt P68400); settings: CSNK2A1; 1000 nM; read-out: Percent Control
T14 construct: purchased Eurofins DiscoverX

kinome (kinase panel) [15] = target: T15, kinome (kinase panel) (Homo sapiens, UniProt P78368); settings: CSNK1G2; 1000 nM; read-out: Percent Control
T15 construct: purchased Eurofins DiscoverX

kinome (kinase panel) [16] = target: T16, kinome (kinase panel) (Homo sapiens, UniProt Q06418); settings: TYRO3; 1000 nM; read-out: Percent Control
T16 construct: purchased Eurofins DiscoverX

kinome (kinase panel) [17] = target: T17, kinome (kinase panel) (Homo sapiens, UniProt Q13233); settings: MAP3K1; 1000 nM; read-out: Percent Control
T17 construct: purchased Eurofins DiscoverX

kinome (kinase panel) [18] = target: T18, kinome (kinase panel) (Homo sapiens, UniProt Q13555); settings: CAMK2G; 1000 nM; read-out: Percent Control
T18 construct: purchased Eurofins DiscoverX

kinome (kinase panel) [19] = target: T19, kinome (kinase panel) (Homo sapiens, UniProt Q15208); settings: NDR1 (Entrez STK38); 1000 nM; read-out: Percent Control
T19 construct: purchased Eurofins DiscoverX

kinome (kinase panel) [20] = target: T20, kinome (kinase panel) (Homo sapiens, UniProt Q16288); settings: TRKC (NTRK3); 1000 nM; read-out: Percent Control
T20 construct: purchased Eurofins DiscoverX

kinome (kinase panel) [21] = target: T21, kinome (kinase panel) (Homo sapiens, UniProt Q32MK0); settings: MLCK (Entrez MYLK3); 1000 nM; read-out: Percent Control
T21 construct: purchased Eurofins DiscoverX

kinome (kinase panel) [22] = target: T22, kinome (kinase panel) (Homo sapiens, UniProt Q8IY84); settings: NIM1 (Entrez MGC42105); 1000 nM; read-out: Percent Control
T22 construct: purchased Eurofins DiscoverX

kinome (kinase panel) [23] = target: T23, kinome (kinase panel) (Homo sapiens, UniProt Q8N5S9); settings: CAMKK1; 1000 nM; read-out: Percent Control
T23 construct: purchased Eurofins DiscoverX

kinome (kinase panel) [24] = target: T24, kinome (kinase panel) (Homo sapiens, UniProt Q8NG66); settings: NEK11; 1000 nM; read-out: Percent Control
T24 construct: purchased Eurofins DiscoverX

kinome (kinase panel) [25] = target: T25, kinome (kinase panel) (Homo sapiens, UniProt Q92918); settings: HPK1 (Entrez MAP4K1); 1000 nM; read-out: Percent Control
T25 construct: purchased Eurofins DiscoverX
T25 sequence (Q92918 whole entry): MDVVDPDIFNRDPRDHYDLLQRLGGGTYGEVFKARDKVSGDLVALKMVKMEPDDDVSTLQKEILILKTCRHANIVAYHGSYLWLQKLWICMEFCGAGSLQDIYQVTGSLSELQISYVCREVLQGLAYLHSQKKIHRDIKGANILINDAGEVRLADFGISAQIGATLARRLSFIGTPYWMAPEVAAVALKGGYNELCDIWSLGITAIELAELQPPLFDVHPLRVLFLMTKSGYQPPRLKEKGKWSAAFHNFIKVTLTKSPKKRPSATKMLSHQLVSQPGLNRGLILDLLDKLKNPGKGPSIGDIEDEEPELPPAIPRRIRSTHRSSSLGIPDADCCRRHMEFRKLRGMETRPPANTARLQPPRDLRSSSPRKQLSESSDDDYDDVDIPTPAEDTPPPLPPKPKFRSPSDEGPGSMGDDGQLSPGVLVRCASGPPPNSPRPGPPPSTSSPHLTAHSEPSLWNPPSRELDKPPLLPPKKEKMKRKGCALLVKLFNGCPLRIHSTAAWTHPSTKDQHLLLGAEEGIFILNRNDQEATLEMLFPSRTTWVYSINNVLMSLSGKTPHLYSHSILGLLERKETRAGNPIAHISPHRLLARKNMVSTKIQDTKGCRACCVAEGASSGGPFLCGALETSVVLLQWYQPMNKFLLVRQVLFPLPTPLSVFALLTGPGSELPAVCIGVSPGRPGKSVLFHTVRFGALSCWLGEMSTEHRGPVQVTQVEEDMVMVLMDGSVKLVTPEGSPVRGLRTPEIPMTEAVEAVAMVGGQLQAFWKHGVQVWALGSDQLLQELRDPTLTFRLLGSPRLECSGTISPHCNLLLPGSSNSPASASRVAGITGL

kinome (kinase panel) [26] = target: T26, kinome (kinase panel) (Homo sapiens, UniProt Q9H093); settings: SNARK (NUAK2); 1000 nM; read-out: Percent Control
T26 construct: purchased Eurofins DiscoverX

kinome (kinase panel) [27] = target: T27, kinome (kinase panel) (Homo sapiens, UniProt Q9H0K1); settings: SIK2; 1000 nM; read-out: Percent Control
T27 construct: purchased Eurofins DiscoverX

kinome (kinase panel) [28] = target: T28, kinome (kinase panel) (Homo sapiens, UniProt Q9HBY8); settings: SGK2; 1000 nM; read-out: Percent Control
T28 construct: purchased Eurofins DiscoverX

kinome (kinase panel) [29] = target: T29, kinome (kinase panel) (Homo sapiens, UniProt Q9HCP0); settings: CSNK1G1; 1000 nM; read-out: Percent Control
T29 construct: purchased Eurofins DiscoverX

kinome (kinase panel) [30] = target: T30, kinome (kinase panel) (Homo sapiens, UniProt Q9NQU5); settings: PAK6; 1000 nM; read-out: Percent Control
T30 construct: purchased Eurofins DiscoverX
T30 sequence (Q9NQU5 whole entry): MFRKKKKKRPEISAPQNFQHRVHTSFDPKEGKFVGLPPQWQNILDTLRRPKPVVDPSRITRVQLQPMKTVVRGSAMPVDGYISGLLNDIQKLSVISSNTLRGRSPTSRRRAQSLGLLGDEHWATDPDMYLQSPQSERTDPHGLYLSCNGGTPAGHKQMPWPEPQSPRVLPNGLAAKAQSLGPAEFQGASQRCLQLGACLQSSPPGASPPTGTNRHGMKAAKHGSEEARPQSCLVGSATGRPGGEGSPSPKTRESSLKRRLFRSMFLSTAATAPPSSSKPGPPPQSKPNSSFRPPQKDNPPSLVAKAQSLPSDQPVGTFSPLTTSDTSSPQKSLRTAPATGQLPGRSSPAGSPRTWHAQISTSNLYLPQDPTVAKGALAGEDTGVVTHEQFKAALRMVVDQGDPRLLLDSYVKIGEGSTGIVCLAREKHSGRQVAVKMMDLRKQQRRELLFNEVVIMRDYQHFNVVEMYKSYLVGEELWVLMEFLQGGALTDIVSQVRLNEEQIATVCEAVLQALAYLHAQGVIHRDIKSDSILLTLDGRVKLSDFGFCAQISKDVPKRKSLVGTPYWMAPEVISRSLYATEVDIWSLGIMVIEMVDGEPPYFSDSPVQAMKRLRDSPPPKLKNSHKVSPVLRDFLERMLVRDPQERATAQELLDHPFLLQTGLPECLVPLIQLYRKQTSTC

kinome (kinase panel) [31] = target: T31, kinome (kinase panel) (Homo sapiens, UniProt Q9UM73); settings: ALK; 1000 nM; read-out: Percent Control
T31 construct: purchased Eurofins DiscoverX

kinome (kinase panel) [32] = target: T32, kinome (kinase panel) (Homo sapiens, UniProt Q9Y616); settings: IRAK3; 1000 nM; read-out: Percent Control
T32 construct: purchased Eurofins DiscoverX
T32 sequence (Q9Y616 whole entry): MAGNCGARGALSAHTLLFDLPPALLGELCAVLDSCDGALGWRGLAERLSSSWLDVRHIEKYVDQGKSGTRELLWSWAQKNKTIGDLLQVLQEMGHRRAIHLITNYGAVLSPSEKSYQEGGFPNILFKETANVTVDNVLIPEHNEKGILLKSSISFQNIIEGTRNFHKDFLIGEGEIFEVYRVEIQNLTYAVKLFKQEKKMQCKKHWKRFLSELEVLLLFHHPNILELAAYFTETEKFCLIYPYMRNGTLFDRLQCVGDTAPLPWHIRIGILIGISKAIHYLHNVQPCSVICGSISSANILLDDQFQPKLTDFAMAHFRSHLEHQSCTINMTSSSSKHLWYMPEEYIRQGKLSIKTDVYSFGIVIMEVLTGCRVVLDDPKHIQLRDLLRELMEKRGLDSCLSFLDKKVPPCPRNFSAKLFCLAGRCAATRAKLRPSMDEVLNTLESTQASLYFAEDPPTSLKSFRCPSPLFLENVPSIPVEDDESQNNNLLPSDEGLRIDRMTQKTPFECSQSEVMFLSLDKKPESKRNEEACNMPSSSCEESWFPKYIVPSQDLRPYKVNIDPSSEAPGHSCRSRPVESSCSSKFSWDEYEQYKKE

CN(C)C(=O)c1cc2cnc(Nc3ccc(-c4csc5c(=O)cc(N6CCOCC6)oc45)cc3)nc2n1C1CCCC1 [SRX3177]
remaining binding at 1 µM (kinome (kinase panel) [1]): 73%
remaining binding at 1 µM (kinome (kinase panel) [2]): 84%
Percent Control (kinome (kinase panel) [3]): 96
remaining binding at 1 µM (kinome (kinase panel) [3]; read-out: Percent Control): 81%
remaining binding at 1 µM (kinome (kinase panel) [4]): 58%
remaining binding at 1 µM (kinome (kinase panel) [5]): 47%
remaining binding at 1 µM (kinome (kinase panel) [6]): 88%
remaining binding at 1 µM (kinome (kinase panel) [7]): 93%
remaining binding at 1 µM (kinome (kinase panel) [8]): 97%
remaining binding at 1 µM (kinome (kinase panel) [9]): 100%
remaining binding at 1 µM (kinome (kinase panel) [10]): 95%
remaining binding at 1 µM (kinome (kinase panel) [11]): 98%
remaining binding at 1 µM (kinome (kinase panel) [12]): 100%
remaining binding at 1 µM (kinome (kinase panel) [13]): 75%
remaining binding at 1 µM (kinome (kinase panel) [14]): 4.8%
remaining binding at 1 µM (kinome (kinase panel) [15]): 96%
remaining binding at 1 µM (kinome (kinase panel) [16]): 100%
remaining binding at 1 µM (kinome (kinase panel) [17]): 40%
remaining binding at 1 µM (kinome (kinase panel) [18]): 65%
remaining binding at 1 µM (kinome (kinase panel) [19]): 99%
remaining binding at 1 µM (kinome (kinase panel) [20]): 37%
remaining binding at 1 µM (kinome (kinase panel) [21]): 100%
remaining binding at 1 µM (kinome (kinase panel) [22]): 69%
remaining binding at 1 µM (kinome (kinase panel) [23]): 46%
remaining binding at 1 µM (kinome (kinase panel) [24]): 99%
remaining binding at 1 µM (kinome (kinase panel) [25]): 100%
remaining binding at 1 µM (kinome (kinase panel) [26]): 70%
remaining binding at 1 µM (kinome (kinase panel) [27]): 58%
remaining binding at 1 µM (kinome (kinase panel) [28]): 65%
remaining binding at 1 µM (kinome (kinase panel) [29]): 82%
remaining binding at 1 µM (kinome (kinase panel) [30]): 100%
remaining binding at 1 µM (kinome (kinase panel) [31]): 66%
remaining binding at 1 µM (kinome (kinase panel) [32]): 83%
